Test results from US10844077B2, “Thiazolyl-containing compounds for treating proliferative diseases” (Dana-Farber Cancer Institute, Inc., priority 2014, dated 2020).
Where two headings read alike, the source gives them in different places.

How the values were obtained:
Assay type in all cases: binding
broad panel of kinases [1] = biological target: broad panel of kinases (Homo sapiens, UniProt P00519, H396P); conditions: 1 μM
broad panel of kinases [2] = biological target: broad panel of kinases (Homo sapiens, UniProt P42681); conditions: TXK; 1 μM
broad panel of kinases [3] = biological target: broad panel of kinases (Homo sapiens, UniProt P00533, DEL752-759); conditions: EGFR(S752-I759del); 1 μM
broad panel of kinases [4] = biological target: broad panel of kinases (Homo sapiens, UniProt P15735); conditions: PHKG2; 1 μM
broad panel of kinases [5] = biological target: broad panel of kinases (Homo sapiens, UniProt Q9HAZ1); conditions: CLK4; 1 μM
broad panel of kinases [6] = biological target: broad panel of kinases (Homo sapiens, UniProt Q00535); conditions: CDK5; 1 μM
broad panel of kinases [7] = biological target: broad panel of kinases (Homo sapiens, UniProt P50750); conditions: CDK9; 1 μM
broad panel of kinases [8] = biological target: broad panel of kinases (Homo sapiens, UniProt Q8N4C8); conditions: MINK; 1 μM
broad panel of kinases [9] = biological target: broad panel of kinases (Homo sapiens, UniProt P07333); conditions: 1 μM
Sequence of broad panel of kinases (Homo sapiens, UniProt P07333) (P07333 20-972 limits assumed): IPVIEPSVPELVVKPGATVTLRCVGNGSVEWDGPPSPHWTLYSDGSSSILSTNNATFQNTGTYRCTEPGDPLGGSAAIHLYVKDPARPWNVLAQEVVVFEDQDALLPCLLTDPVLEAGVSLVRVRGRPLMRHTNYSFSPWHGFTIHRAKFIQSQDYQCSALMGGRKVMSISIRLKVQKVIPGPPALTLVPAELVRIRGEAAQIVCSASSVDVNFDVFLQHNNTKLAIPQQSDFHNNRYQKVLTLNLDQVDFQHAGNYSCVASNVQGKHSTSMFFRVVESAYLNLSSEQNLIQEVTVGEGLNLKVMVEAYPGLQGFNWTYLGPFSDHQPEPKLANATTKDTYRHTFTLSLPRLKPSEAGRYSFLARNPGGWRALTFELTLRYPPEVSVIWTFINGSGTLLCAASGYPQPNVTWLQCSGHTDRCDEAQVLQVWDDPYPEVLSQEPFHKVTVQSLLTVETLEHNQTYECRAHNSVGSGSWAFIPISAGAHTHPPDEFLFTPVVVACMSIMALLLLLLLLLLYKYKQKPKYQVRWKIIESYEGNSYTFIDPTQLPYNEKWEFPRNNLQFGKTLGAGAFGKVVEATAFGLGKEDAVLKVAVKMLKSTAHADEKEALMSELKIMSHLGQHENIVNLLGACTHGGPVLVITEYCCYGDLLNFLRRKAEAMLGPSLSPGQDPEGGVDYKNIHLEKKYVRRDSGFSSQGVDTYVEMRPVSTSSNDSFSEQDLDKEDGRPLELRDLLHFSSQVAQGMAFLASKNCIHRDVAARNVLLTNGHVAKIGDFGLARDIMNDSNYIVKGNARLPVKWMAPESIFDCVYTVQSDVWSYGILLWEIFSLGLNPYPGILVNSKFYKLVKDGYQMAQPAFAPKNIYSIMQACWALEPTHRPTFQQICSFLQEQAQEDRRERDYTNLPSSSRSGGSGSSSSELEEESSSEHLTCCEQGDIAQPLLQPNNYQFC

broad panel of kinases [10] = biological target: broad panel of kinases (Homo sapiens, UniProt O15075); conditions: DCAMKL1; 1 μM
broad panel of kinases [11] = biological target: broad panel of kinases (Homo sapiens, UniProt O15264); conditions: p38-delta; 1 μM
broad panel of kinases [12] = biological target: broad panel of kinases (Homo sapiens, UniProt Q13882); conditions: BRK; 1 μM
broad panel of kinases [13] = biological target: broad panel of kinases (Homo sapiens, UniProt O75116); conditions: ROCK2; 1 μM
broad panel of kinases [14] = biological target: broad panel of kinases (Homo sapiens, UniProt P29597); conditions: 1 μM
broad panel of kinases [15] = biological target: broad panel of kinases (Homo sapiens, UniProt P36896); conditions: ACVR1B; 1 μM
broad panel of kinases [16] = biological target: broad panel of kinases (Homo sapiens, UniProt Q13233); conditions: MAP3K1; 1 μM
broad panel of kinases [17] = biological target: broad panel of kinases (Plasmodium falciparum, UniProt P62344)
broad panel of kinases [18] = biological target: broad panel of kinases (Homo sapiens, UniProt P19525); conditions: PRKR; 1 μM
broad panel of kinases [19] = biological target: broad panel of kinases (Homo sapiens, UniProt Q8TF76); conditions: HASPIN; 1 μM
broad panel of kinases [20] = biological target: broad panel of kinases (Homo sapiens, UniProt Q9NYL2); conditions: ZAK; 1 μM
broad panel of kinases [21] = biological target: broad panel of kinases (Homo sapiens, UniProt Q13470); conditions: TNK1; 1 μM
broad panel of kinases [22] = biological target: broad panel of kinases (Homo sapiens, UniProt Q9BVS4); conditions: RIOK2; 1 μM
broad panel of kinases [23] = biological target: broad panel of kinases (Homo sapiens, UniProt Q92918); conditions: HPK1; 1 μM
broad panel of kinases [24] = biological target: broad panel of kinases (Homo sapiens, UniProt Q96Q40)
broad panel of kinases [25] = biological target: broad panel of kinases (Homo sapiens, UniProt O00506); conditions: YSK1; 1 μM
broad panel of kinases [26] = biological target: broad panel of kinases (Homo sapiens, UniProt P06213); conditions: INSR; 1 μM
Sequence of broad panel of kinases (Homo sapiens, UniProt P06213) (P06213 28-758 limits assumed): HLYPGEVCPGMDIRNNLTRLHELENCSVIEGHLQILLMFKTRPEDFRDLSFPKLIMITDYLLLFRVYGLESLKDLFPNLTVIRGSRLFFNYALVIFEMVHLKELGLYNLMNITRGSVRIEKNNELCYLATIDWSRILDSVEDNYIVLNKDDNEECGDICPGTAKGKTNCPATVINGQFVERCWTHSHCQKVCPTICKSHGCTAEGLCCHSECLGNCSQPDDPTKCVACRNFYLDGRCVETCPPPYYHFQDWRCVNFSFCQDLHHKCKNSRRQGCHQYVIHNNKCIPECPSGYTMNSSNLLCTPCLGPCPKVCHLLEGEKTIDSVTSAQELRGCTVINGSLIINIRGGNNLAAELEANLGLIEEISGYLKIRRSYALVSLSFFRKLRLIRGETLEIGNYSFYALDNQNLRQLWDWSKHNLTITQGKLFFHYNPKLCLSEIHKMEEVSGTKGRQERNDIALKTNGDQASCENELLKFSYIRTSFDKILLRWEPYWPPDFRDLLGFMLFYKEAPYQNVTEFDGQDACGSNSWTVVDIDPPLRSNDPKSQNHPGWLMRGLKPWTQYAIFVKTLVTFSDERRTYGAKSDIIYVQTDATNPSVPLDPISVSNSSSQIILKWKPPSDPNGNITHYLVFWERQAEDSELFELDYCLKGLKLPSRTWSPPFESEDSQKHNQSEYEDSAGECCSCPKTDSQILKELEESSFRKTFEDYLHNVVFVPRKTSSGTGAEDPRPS
Sequence of broad panel of kinases (Homo sapiens, UniProt P06213) (P06213 763-1382 limits assumed): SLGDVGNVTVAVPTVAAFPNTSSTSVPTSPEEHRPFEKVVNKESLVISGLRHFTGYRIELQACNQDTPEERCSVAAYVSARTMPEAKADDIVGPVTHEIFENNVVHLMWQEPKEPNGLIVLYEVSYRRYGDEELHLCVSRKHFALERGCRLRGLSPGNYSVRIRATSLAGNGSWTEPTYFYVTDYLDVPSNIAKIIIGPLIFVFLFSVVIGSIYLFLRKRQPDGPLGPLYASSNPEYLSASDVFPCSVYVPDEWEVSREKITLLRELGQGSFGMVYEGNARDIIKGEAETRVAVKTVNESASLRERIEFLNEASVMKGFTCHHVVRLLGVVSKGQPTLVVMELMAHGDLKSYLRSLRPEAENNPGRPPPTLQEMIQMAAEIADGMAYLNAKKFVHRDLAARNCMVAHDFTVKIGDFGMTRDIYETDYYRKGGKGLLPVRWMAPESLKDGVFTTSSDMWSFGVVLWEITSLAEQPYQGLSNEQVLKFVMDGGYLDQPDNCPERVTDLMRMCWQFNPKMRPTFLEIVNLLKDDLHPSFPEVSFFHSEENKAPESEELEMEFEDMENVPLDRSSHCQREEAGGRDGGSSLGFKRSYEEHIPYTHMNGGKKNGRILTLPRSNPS

broad panel of kinases [27] = biological target: broad panel of kinases (Homo sapiens, UniProt P22607); conditions: FGFR3; 1 μM
Sequence of broad panel of kinases (Homo sapiens, UniProt P22607) (P22607 23-806 limits assumed): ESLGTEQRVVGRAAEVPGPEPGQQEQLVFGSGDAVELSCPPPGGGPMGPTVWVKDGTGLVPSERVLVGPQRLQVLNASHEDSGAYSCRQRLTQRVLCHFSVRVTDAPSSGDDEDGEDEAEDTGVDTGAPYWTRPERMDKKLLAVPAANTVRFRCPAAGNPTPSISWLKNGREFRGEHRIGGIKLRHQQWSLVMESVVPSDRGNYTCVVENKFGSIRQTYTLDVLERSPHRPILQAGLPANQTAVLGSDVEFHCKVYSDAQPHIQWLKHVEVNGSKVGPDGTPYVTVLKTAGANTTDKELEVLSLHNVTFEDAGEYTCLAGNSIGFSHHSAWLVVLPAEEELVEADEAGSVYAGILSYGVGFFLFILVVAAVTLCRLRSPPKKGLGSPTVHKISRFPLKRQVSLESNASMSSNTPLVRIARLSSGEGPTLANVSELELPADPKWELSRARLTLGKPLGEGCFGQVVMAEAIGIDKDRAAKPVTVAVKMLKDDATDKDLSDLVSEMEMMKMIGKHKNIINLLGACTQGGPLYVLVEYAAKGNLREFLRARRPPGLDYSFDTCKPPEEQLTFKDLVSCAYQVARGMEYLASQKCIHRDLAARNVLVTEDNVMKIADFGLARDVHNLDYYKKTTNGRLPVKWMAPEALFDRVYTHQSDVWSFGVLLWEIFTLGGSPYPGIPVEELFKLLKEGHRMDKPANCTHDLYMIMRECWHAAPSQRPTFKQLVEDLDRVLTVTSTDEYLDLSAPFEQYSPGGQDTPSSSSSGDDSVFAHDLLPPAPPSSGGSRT

broad panel of kinases [28] = biological target: broad panel of kinases (Homo sapiens, UniProt Q16513); conditions: PKN2; 1 μM
broad panel of kinases [29] = biological target: broad panel of kinases (Homo sapiens, UniProt P43403); conditions: ZAP70; 1 μM
broad panel of kinases [30] = biological target: broad panel of kinases (Homo sapiens, UniProt O43293); conditions: DAPK3; 1 μM
broad panel of kinases [31] = biological target: broad panel of kinases (Homo sapiens, UniProt Q86UX6); conditions: YANK3; 1 μM
broad panel of kinases [32] = biological target: broad panel of kinases (Homo sapiens, UniProt Q13164); conditions: ERK5; 1 μM
Sequence of broad panel of kinases (Homo sapiens, UniProt Q13164) (Q13164 2-816 limits assumed): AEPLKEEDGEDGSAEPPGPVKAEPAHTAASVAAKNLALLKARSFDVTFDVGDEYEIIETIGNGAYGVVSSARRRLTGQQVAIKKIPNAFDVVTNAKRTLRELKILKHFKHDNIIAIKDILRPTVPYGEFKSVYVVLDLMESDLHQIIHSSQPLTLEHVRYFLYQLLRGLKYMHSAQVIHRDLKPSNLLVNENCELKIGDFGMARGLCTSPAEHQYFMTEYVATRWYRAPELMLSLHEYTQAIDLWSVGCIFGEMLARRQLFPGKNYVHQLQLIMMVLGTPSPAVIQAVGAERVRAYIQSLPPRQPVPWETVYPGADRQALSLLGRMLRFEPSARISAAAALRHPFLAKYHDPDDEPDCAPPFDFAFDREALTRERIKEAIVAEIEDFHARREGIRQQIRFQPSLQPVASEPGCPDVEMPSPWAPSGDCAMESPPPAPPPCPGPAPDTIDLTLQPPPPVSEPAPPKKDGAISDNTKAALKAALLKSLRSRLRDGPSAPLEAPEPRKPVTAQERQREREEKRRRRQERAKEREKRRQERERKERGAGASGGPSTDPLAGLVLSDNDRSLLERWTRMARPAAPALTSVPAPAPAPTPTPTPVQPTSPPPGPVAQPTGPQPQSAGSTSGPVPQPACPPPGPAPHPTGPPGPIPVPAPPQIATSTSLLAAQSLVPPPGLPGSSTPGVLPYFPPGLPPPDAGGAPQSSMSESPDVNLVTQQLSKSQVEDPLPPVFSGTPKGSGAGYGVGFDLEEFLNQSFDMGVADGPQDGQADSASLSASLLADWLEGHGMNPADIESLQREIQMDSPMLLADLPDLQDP

broad panel of kinases [33] = biological target: broad panel of kinases (Homo sapiens, UniProt P30291); conditions: WEE1; 1 μM
broad panel of kinases [34] = biological target: broad panel of kinases (Homo sapiens, UniProt Q96SB4); conditions: SRPK1; 1 μM
broad panel of kinases [35] = biological target: broad panel of kinases (Homo sapiens, UniProt Q13873); conditions: BMPR2; 1 μM
Sequence of broad panel of kinases (Homo sapiens, UniProt Q13873) (Q13873 27-1038 limits assumed): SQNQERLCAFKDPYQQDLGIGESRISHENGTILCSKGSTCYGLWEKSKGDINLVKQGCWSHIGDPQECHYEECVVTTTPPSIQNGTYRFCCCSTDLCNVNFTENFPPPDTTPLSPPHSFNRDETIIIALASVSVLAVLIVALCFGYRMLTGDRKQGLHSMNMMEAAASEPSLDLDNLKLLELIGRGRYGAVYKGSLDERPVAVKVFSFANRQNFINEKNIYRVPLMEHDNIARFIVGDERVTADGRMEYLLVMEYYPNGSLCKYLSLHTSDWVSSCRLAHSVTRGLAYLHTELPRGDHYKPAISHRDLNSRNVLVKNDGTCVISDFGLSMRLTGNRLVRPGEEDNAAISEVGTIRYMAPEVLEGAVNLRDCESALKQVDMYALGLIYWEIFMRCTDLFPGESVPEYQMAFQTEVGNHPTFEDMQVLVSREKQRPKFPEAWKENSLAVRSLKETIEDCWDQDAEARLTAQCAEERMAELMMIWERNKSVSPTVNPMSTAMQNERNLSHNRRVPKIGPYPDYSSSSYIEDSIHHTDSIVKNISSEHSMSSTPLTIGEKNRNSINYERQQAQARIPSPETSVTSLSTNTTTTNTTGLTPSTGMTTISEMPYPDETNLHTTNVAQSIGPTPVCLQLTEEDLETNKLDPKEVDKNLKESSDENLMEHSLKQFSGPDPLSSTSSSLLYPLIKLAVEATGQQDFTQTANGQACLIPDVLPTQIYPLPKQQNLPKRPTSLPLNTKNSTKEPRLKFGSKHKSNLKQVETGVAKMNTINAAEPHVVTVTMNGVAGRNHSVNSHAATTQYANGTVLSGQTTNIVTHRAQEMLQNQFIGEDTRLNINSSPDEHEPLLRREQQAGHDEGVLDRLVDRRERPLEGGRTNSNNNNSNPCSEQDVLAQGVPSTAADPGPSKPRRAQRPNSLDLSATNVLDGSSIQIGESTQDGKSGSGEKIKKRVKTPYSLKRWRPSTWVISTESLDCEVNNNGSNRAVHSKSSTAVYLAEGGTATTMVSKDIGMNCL

broad panel of kinases [36] = biological target: broad panel of kinases (Homo sapiens, UniProt P51813); conditions: BMX; 1 μM
broad panel of kinases [37] = biological target: broad panel of kinases (Homo sapiens, UniProt Q99683); conditions: ASK1; 1 μM

Row | Compound | percent of control binding remaining (lower = stronger binding) (broad panel of kinases [2]) [%] | percent of control binding remaining (lower = stronger binding) (broad panel of kinases [3]) [%] | percent of control binding remaining (lower = stronger binding) (broad panel of kinases [4]) [%] | percent of control binding remaining (lower = stronger binding) (broad panel of kinases [5]) [%] | percent of control binding remaining (lower = stronger binding) (broad panel of kinases [6]) [%] | percent of control binding remaining (lower = stronger binding) (broad panel of kinases [7]) [%] | percent of control binding remaining (lower = stronger binding) (broad panel of kinases [8]) [%] | percent of control binding remaining (lower = stronger binding) (broad panel of kinases [9]; CSF1R-autoinhibited) [%] | percent of control binding remaining (lower = stronger binding) (broad panel of kinases [9]; CSF1R) [%] | percent of control binding remaining (lower = stronger binding) (broad panel of kinases [10]) [%] | percent of control binding remaining (lower = stronger binding) (broad panel of kinases [11]) [%] | percent of control binding remaining (lower = stronger binding) (broad panel of kinases [12]) [%] | percent of control binding remaining (lower = stronger binding) (broad panel of kinases [13]) [%] | percent of control binding remaining (lower = stronger binding) (broad panel of kinases [14]; TYK2(JH1domain-catalytic)) [%] | percent of control binding remaining (lower = stronger binding) (broad panel of kinases [14]; TYK2(JH2domain-pseudokinase)) [%] | percent of control binding remaining (lower = stronger binding) (broad panel of kinases [15]) [%] | percent of control binding remaining (lower = stronger binding) (broad panel of kinases [16]) [%] | % change compared to control (broad panel of kinases [17]) [%] | percent of control binding remaining (lower = stronger binding) (broad panel of kinases [18]) [%] | percent of control binding remaining (lower = stronger binding) (broad panel of kinases [19]) [%] | further results
1 | C=CC(=O)N1CC[C@H](Nc2nc(CN3CCOCC3)cc(Nc3ncc(C(=O)Nc4c(C)cccc4C)s3)n2)C1 [Example I-2] | 0.6 | 17 | 96 | 94 | 100 | 90 | 71 | 1.4 | 2.6 | 87 | 100 | 1.6 | 95 | 89 | 28 | 68 | 70 | 24 | 89 | 100 | percent of control binding remaining (lower = stronger binding) (broad panel of kinases [1]; ABL1(H396P)-nonphosphorylated): 0%; percent of control binding remaining (lower = stronger binding) (broad panel of kinases [1]; ABL1(H396P)-phosphorylated): 0%; percent of control binding remaining (lower = stronger binding) (broad panel of kinases [20]): 87%; percent of control binding remaining (lower = stronger binding) (broad panel of kinases [21]): 100%; percent of control binding remaining (lower = stronger binding) (broad panel of kinases [22]): 92%; percent of control binding remaining (lower = stronger binding) (broad panel of kinases [23]): 51%; % change compared to control (broad panel of kinases [24]): 100%; percent of control binding remaining (lower = stronger binding) (broad panel of kinases [25]): 85%; percent of control binding remaining (lower = stronger binding) (broad panel of kinases [26]): 67%; percent of control binding remaining (lower = stronger binding) (broad panel of kinases [27]): 99%; percent of control binding remaining (lower = stronger binding) (broad panel of kinases [28]): 84%; percent of control binding remaining (lower = stronger binding) (broad panel of kinases [29]): 99%; percent of control binding remaining (lower = stronger binding) (broad panel of kinases [30]): 89%; percent of control binding remaining (lower = stronger binding) (broad panel of kinases [31]): 83%; percent of control binding remaining (lower = stronger binding) (broad panel of kinases [32]): 91%; percent of control binding remaining (lower = stronger binding) (broad panel of kinases [33]): 93%; percent of control binding remaining (lower = stronger binding) (broad panel of kinases [34]): 91%; percent of control binding remaining (lower = stronger binding) (broad panel of kinases [35]): 100%; percent of control binding remaining (lower = stronger binding) (broad panel of kinases [36]): 3.6%; percent of control binding remaining (lower = stronger binding) (broad panel of kinases [37]): 96%
2 | C=CC(=O)N1CC[C@H](Nc2nccc(Nc3ncc(C(=O)Nc4c(C)cccc4C)s3)n2)C1 [Example I-3] | 0.7 | 4.6 | 94 | 85 | 100 | 75 | 66 | 3.2 | 3.3 | 84 | 100 | 9.3 | 75 | 91 | 26 | 100 | 80 | 8.1 | 69 | 88 | % change compared to control (broad panel of kinases [1]; ABL1(H396P)-nonphosphorylated): 0.05%; % change compared to control (broad panel of kinases [1]; ABL1(H396P)-phosphorylated): 0%; percent of control binding remaining (lower = stronger binding) (broad panel of kinases [20]): 94%; percent of control binding remaining (lower = stronger binding) (broad panel of kinases [21]): 100%; percent of control binding remaining (lower = stronger binding) (broad panel of kinases [22]): 77%; percent of control binding remaining (lower = stronger binding) (broad panel of kinases [23]): 61%; % change compared to control (broad panel of kinases [24]): 95%; percent of control binding remaining (lower = stronger binding) (broad panel of kinases [25]): 87%; percent of control binding remaining (lower = stronger binding) (broad panel of kinases [26]): 93%; % change compared to control (broad panel of kinases [27]): 100%; percent of control binding remaining (lower = stronger binding) (broad panel of kinases [28]): 100%; percent of control binding remaining (lower = stronger binding) (broad panel of kinases [29]): 100%; percent of control binding remaining (lower = stronger binding) (broad panel of kinases [30]): 84%; percent of control binding remaining (lower = stronger binding) (broad panel of kinases [31]): 91%; percent of control binding remaining (lower = stronger binding) (broad panel of kinases [32]): 90%; percent of control binding remaining (lower = stronger binding) (broad panel of kinases [33]): 100%; percent of control binding remaining (lower = stronger binding) (broad panel of kinases [34]): 96%; percent of control binding remaining (lower = stronger binding) (broad panel of kinases [35]): 100%; percent of control binding remaining (lower = stronger binding) (broad panel of kinases [36]): 4.9%; percent of control binding remaining (lower = stronger binding) (broad panel of kinases [37]): 91%
